Measurements as given in paper PMC7070898 (Clinical and Translational Science, 2019).

Assay: Safety and tolerability
[1] = MAD 25 mg once daily 14 days, n = 9
[2] = MAD 75 mg once daily 14 days, n = 9
[3] = MAD 200 mg once daily 14 days, n = 9

## C=CC(=O)N1CCC(CNc2ncnc(N)c2-c2ccc(Oc3ccccc3)cc2)CC1 [evobrutinib]
[1]
  TEAE: Abdominal discomfort: 1 (11.1) (1) n (%), (number of events)
  TEAE: Abdominal pain: 0 (0.0) n (%), (number of events)
  TEAE: Application site irritation: 0 (0.0) n (%), (number of events)
  TEAE: Complex regional pain: 1 (11.1) (1) n (%), (number of events)
  TEAE: Constipation: 0 (0.0) n (%), (number of events)
  TEAE: Dry throat: 0 (0.0) n (%), (number of events)
  TEAE: Excoriation: 1 (11.1) (1) n (%), (number of events)
  TEAE: Fatigue: 0 (0.0) n (%), (number of events)
  TEAE: Headache: 1 (11.1) (1) n (%), (number of events)
  TEAE: Muscle spasms: 0 (0.0) n (%), (number of events)
  TEAE: Muscle strain: 1 (11.1) (1) n (%), (number of events)
  TEAE: Nausea: 0 (0.0) n (%), (number of events)
  TEAE: Overall total: 3 (33.3) (6) n (%), (number of events)
  TEAE: Rhinorrhea: 1 (11.1) (1) n (%), (number of events)
  TEAE: Sneezing: 0 (0.0) n (%), (number of events)
  TEAE: Toothache: 0 (0.0) n (%), (number of events)
  TEAE: URTI: 0 (0.0) n (%), (number of events)
[2]
  TEAE: Abdominal discomfort: 0 (0.0) n (%), (number of events)
  TEAE: Abdominal pain: 1 (11.1) (2) n (%), (number of events)
  TEAE: Application site irritation: 1 (11.1) (1) n (%), (number of events)
  TEAE: Complex regional pain: 0 (0.0) n (%), (number of events)
  TEAE: Constipation: 1 (11.1) (1) n (%), (number of events)
  TEAE: Dry throat: 1 (11.1) (1) n (%), (number of events)
  TEAE: Excoriation: 0 (0.0) n (%), (number of events)
  TEAE: Fatigue: 2 (22.2) (2) n (%), (number of events)
  TEAE: Headache: 2 (22.2) (2) n (%), (number of events)
  TEAE: Muscle spasms: 1 (11.1) (1) n (%), (number of events)
  TEAE: Muscle strain: 0 (0.0) n (%), (number of events)
  TEAE: Nausea: 1 (11.1) (2) n (%), (number of events)
  TEAE: Overall total: 7 (77.8) (14) n (%), (number of events)
  TEAE: Rhinorrhea: 0 (0.0) n (%), (number of events)
  TEAE: Sneezing: 1 (11.1) (1) n (%), (number of events)
  TEAE: Toothache: 0 (0.0) n (%), (number of events)
  TEAE: URTI: 1 (11.1) (1) n (%), (number of events)
[3]
  TEAE: Abdominal discomfort: 0 (0.0) n (%), (number of events)
  TEAE: Abdominal pain: 0 (0.0) n (%), (number of events)
  TEAE: Application site irritation: 1 (11.1) (1) n (%), (number of events)
  TEAE: Complex regional pain: 0 (0.0) n (%), (number of events)
  TEAE: Constipation: 0 (0.0) n (%), (number of events)
  TEAE: Dry throat: 0 (0.0) n (%), (number of events)
  TEAE: Excoriation: 0 (0.0) n (%), (number of events)
  TEAE: Fatigue: 0 (0.0) n (%), (number of events)
  TEAE: Headache: 0 (0.0) n (%), (number of events)
  TEAE: Muscle spasms: 0 (0.0) n (%), (number of events)
  TEAE: Muscle strain: 0 (0.0) n (%), (number of events)
  TEAE: Nausea: 0 (0.0) n (%), (number of events)
  TEAE: Overall total: 3 (33.3) (3) n (%), (number of events)
  TEAE: Rhinorrhea: 0 (0.0) n (%), (number of events)
  TEAE: Sneezing: 0 (0.0) n (%), (number of events)
  TEAE: Toothache: 1 (11.1) (1) n (%), (number of events)
  TEAE: URTI: 1 (11.1) (1) n (%), (number of events)
MAD pooled active, n = 27
  TEAE: Abdominal discomfort: 1 (3.7) (1) n (%), (number of events)
  TEAE: Abdominal pain: 1 (3.7) (2) n (%), (number of events)
  TEAE: Application site irritation: 2 (7.4) (2) n (%), (number of events)
  TEAE: Complex regional pain: 1 (3.7) (1) n (%), (number of events)
  TEAE: Constipation: 1 (3.7) (1) n (%), (number of events)
  TEAE: Dry throat: 1 (3.7) (1) n (%), (number of events)
  TEAE: Excoriation: 1 (3.7) (1) n (%), (number of events)
  TEAE: Fatigue: 2 (7.4) (2) n (%), (number of events)
  TEAE: Headache: 3 (11.1) (3) n (%), (number of events)
  TEAE: Muscle spasms: 1 (3.7) (1) n (%), (number of events)
  TEAE: Muscle strain: 1 (3.7) (1) n (%), (number of events)
  TEAE: Nausea: 1 (3.7) (2) n (%), (number of events)
  TEAE: Overall total: 13 (48.1) (23) n (%), (number of events)
  TEAE: Rhinorrhea: 1 (3.7) (1) n (%), (number of events)
  TEAE: Sneezing: 1 (3.7) (1) n (%), (number of events)
  TEAE: Toothache: 1 (3.7) (1) n (%), (number of events)
  TEAE: URTI: 2 (7.4) (2) n (%), (number of events)
SAD 25 mg, n = 6
  TEAE: Abdominal pain: 0 (0.0) n (%), (number of events)
  TEAE: Amylase increased: 0 (0.0) n (%), (number of events)
  TEAE: Application site pruritus (due to ECG stickers): 0 (0.0) n (%), (number of events)
  TEAE: Back pain: 0 (0.0) n (%), (number of events)
  TEAE: Contact dermatitis: 0 (0.0) n (%), (number of events)
  TEAE: Dizziness: 0 (0.0) n (%), (number of events)
  TEAE: Dry eye: 0 (0.0) n (%), (number of events)
  TEAE: Dry mouth: 0 (0.0) n (%), (number of events)
  TEAE: Dyspepsia: 0 (0.0) n (%), (number of events)
  TEAE: Excoriation: 0 (0.0) n (%), (number of events)
  TEAE: Headache: 0 (0.0) n (%), (number of events)
  TEAE: Lipase increased: 0 (0.0) n (%), (number of events)
  TEAE: Multiple injuries: 0 (0.0) n (%), (number of events)
  TEAE: Nasal congestion: 0 (0.0) n (%), (number of events)
  TEAE: Noncardiac chest pain: 0 (0.0) n (%), (number of events)
  TEAE: Odynophagia: 0 (0.0) n (%), (number of events)
  TEAE: Overall total: 0 (0.0) n (%), (number of events)
  TEAE: URTI: 0 (0.0) n (%), (number of events)
SAD 50 mg, n = 6
  TEAE: Abdominal pain: 0 (0.0) n (%), (number of events)
  TEAE: Amylase increased: 0 (0.0) n (%), (number of events)
  TEAE: Application site pruritus (due to ECG stickers): 0 (0.0) n (%), (number of events)
  TEAE: Back pain: 1 (16.7) (1) n (%), (number of events)
  TEAE: Contact dermatitis: 2 (33.3) (2) n (%), (number of events)
  TEAE: Dizziness: 0 (0.0) n (%), (number of events)
  TEAE: Dry eye: 0 (0.0) n (%), (number of events)
  TEAE: Dry mouth: 0 (0.0) n (%), (number of events)
  TEAE: Dyspepsia: 1 (16.7) (1) n (%), (number of events)
  TEAE: Excoriation: 0 (0.0) n (%), (number of events)
  TEAE: Headache: 1 (16.7) (2) n (%), (number of events)
  TEAE: Lipase increased: 0 (0.0) n (%), (number of events)
  TEAE: Multiple injuries: 0 (0.0) n (%), (number of events)
  TEAE: Nasal congestion: 0 (0.0) n (%), (number of events)
  TEAE: Noncardiac chest pain: 0 (0.0) n (%), (number of events)
  TEAE: Odynophagia: 0 (0.0) n (%), (number of events)
  TEAE: Overall total: 3 (50.0) (6) n (%), (number of events)
  TEAE: URTI: 0 (0.0) n (%), (number of events)
